# Where two headings read alike, the source gives them in different places.
# Key:
# [1] = molecular target: T1, baculosome-derived full-length SQLE (Homo sapiens, UniProt Q14534); assay: Biochemistry assay of SQLE activity with SQLE baculosomes (LC-MS/MS detection of 2,3-oxidosqualene); type: biochemical; conditions: for mechanism of inhibition with respect to squalene substrate: squalene varied from 50 to 0.39 μM, fixed inhibitor concentrations
# T1 construct: we overexpressed full-length SQLE in Sf9 cells using a baculovirus system; made in house; host or cells: Sf9 insect cells (baculovirus), membrane preparation (baculosomes)
# Experimental: pFastBac1-SQLE was transformed into DH10Bac E. coli (Thermo Fisher) for transposition into bacmid, and positive clones were selected on a blue/white LB agar plate. Recombinant bacmid as isolated from positive clones with the PureLink Hipure Plasmid DNA miniprep kit (Thermo Fisher) and transfected into Sf9 cells (Thermo Fisher) to generate recombinant virus stocks, which were amplified further before Sf9 infection at a multiplicity of infection of two. Infected cells were harvested 72 h post infection and resuspended in phosphate buffered saline, then disrupted by sonication. The cell lysate was clarified by centrifugation at 1500× g for 10 min, the supernatant was further centrifuged at 10,000× g for another 10 min to remove cell debris; and then the supernatant was harvested and centrifuged at 100,000× g for 90 min. The pellet of SQLE baculosomes was collected and homogenized in the buffer (50 mM potassium phosphate, 20% Glycerol, pH7.0) by micro-electric homogenizer (IKA Works, Germany). The protein concentration was determined by the Bradford method. SQLE baculosomes were aliquoted and stored at −80 ℃. The abundance of SQLE in the baculosomes compared to other subcellular fractions was evaluated by immunoblotting against the N-terminal his-tag. Y195A, and Y195F mutant baculosomes were prepared as described above from Sf9 cells infected with engineered viruses.
# All biochemistry assay buffers contained 100 mM Tris, 0.1% triton X-100, 1 mM EDTA, 0.1 mM FAD and 1 mM NADPH. […] The reaction was quenched by adding 100 μL of 10 mM ammonium acetate buffer, followed by addition of 600 μL ethyl acetate containing 0.4 mg/mL butylated hydroxytoluene (BHT) to prevent oxidation. The mixture was vortexed for 30 min to extract 2,3-oxidosqualene, then centrifuged at 4000 rpm for 10 min. The supernatant was transferred to a new plate for LC-MS/MS detection. […] Kinetic analysis for HLMs (Sekisui Xenotech, LLC, Kansas City, KS) was performed as for baculosomes, with HLM concentration at 0.5 mg/ml. Kinetic analysis for recombinant SQLE was performed as for baculosomes, with the addition of 1.5 μg/ml recombinant P450R (Sigma-Aldrich).
# Samples were dried down under nitrogen and then reconstituted with 70 μL of 0.2 mg/mL BHT in acetonitrile. An aliquot of 7.5 μL was injected into the UPLC-MS/MS system. The instrument setup consisted of an AB Sciex API-6500 Mass Spectrometer (AB Sciex, USA) equipped with a Waters UPLC Acquity (Waters, USA). The UPLC separation was performed on an ACQUITY UPLC BEH C18 (2.1 × 50 mm, 1.7 µm, Waters) at 40 ℃. Formic acid in water (0.1%, v/v, mobile phase A) and a mixture of acetonitrile and isopropanol (80:20, v/v with 0.1% formic acid, mobile phase B) were employed as the mobile phase. An isocratic elution of 98% mobile phase B was used and run time was 1.5 min. The flow rate of mobile phase was set at 0.6 mL/min.
# [2] = test system: human SQLE; conditions: cited from earlier work; for IC50: previously reported
# [3] = molecular target: T2, endogenous SQLE in human liver microsomes (Homo sapiens, UniProt Q14534); assay: HLM assay of SQLE activity (human liver microsomes, LC-MS/MS); type: biochemical
# T2 construct: human liver microsomes (HLM) which have the advantage of providing endogenous SQLE; tissue Sekisui Xenotech, LLC, Kansas City, KS; host or cells: human liver microsomes
# Experimental: All biochemistry assay buffers contained 100 mM Tris, 0.1% triton X-100, 1 mM EDTA, 0.1 mM FAD and 1 mM NADPH. […] The reaction was quenched by adding 100 μL of 10 mM ammonium acetate buffer, followed by addition of 600 μL ethyl acetate containing 0.4 mg/mL butylated hydroxytoluene (BHT) to prevent oxidation. The mixture was vortexed for 30 min to extract 2,3-oxidosqualene, then centrifuged at 4000 rpm for 10 min. The supernatant was transferred to a new plate for LC-MS/MS detection. […] Kinetic analysis for HLMs (Sekisui Xenotech, LLC, Kansas City, KS) was performed as for baculosomes, with HLM concentration at 0.5 mg/ml. […] (Sigma-Aldrich). […] An aliquot of 7.5 μL was injected into the UPLC-MS/MS system. The instrument setup consisted of an AB Sciex API-6500 Mass Spectrometer (AB Sciex, USA) equipped with a Waters UPLC Acquity (Waters, USA). […] Formic acid in water (0.1%, v/v, mobile phase A) and a mixture of acetonitrile and isopropanol (80:20, v/v with 0.1% formic acid, mobile phase B) were employed as the mobile phase. An isocratic elution of 98% mobile phase B was used and run time was 1.5 min. The flow rate of mobile phase was set at 0.6 mL/min.
# [4] = molecular target: T3, SQLE (118–574) (Homo sapiens, UniProt Q14534); assay: Thermal shift assay, N-terminally truncated SQLE (118–574); type: binding; conditions: 100 μM ligands
# T3 construct: to the N-terminally truncated SQLE (118–574), resulting in the selection of this construct for further studies; His6-MBP (TEV site) (N, cleaved yes); made in house; host or cells: Rosetta (DE3) E. coli
# Experimental: (§1) Thermal shift assays were performed in 96-well PCR plates using an RT-PCR instrument (ABI 7500 Fast, Applied Biosystems, USA). Standard assay conditions (20 μL) contain 12.5 μL protein (1 mg/mL) in storage buffer 50 mM Tris (pH 8.0), 500 mM NaCl, 5% glycerol and 100 μM corresponding ligands, 5 μL Protein Thermal Shift^TM buffer, and 2.5 μL of the ROX dye (8 × , Protein Thermal Shift^TM Dye Kit, Applied Biosystems, USA). All experiments were performed in triplicate and reaction mixtures were pre-incubated at 4 °C for 1 h. […] For the detergent screening, the SQLE protein was buffer exchanged to 500 mM NaCl, 50 mM Tris-HCl (pH 8.0) containing different detergents using Superdex^TM 200 Increase 10/300 GL gel-filtration column (GE Healthcare, USA) and assayed as described above.
# [5] = molecular target: T4, SQLE (118-488) (Homo sapiens, UniProt Q14534); assay: Thermal shift assay, SQLE (118-488); type: binding; conditions: 100 μM ligands
# T4 construct: Thermal shift assay fluorescence signals obtained for SQLE (118-488), with and without FAD; made in house; host or cells: Rosetta (DE3) E. coli
# Experimental: as §1
# [6] = molecular target: T5, recombinant N-terminally truncated SQLE (118–574) (Homo sapiens, UniProt Q14534); assay: Enzymatic assay with recombinant SQLE (118–574) plus recombinant P450R; type: biochemical; conditions: saturating squalene, varied FAD
# T5 construct: First, we used the recombinant N-terminally truncated SQLE (118–574); His6-MBP (TEV site) (N, cleaved yes); made in house; host or cells: Rosetta (DE3) E. coli
# From the text: The cDNA of human SQLE (NCBI accession number: NM_003129.3) was cloned into pET28a expression vector (Supplementary Table 2). Multiple constructs were designed with six unique N-termini (starting at 1, 101, 111, 118, 124, 144) and four C-termini (ending at 488, 518, 543, 574), along with different affinity/solubilization tags expressed in Rosetta (DE3) E. coli (Shanghai Weidi Biotechnology). Soluble proteins were obtained for four of the expression constructs with N- and C-terminal boundaries corresponding to 101-574, 118-574, 101-488, and 118-488 and were used in crystallization trials. The His6-MBP-TEV-SQLE (118-574) construct in pET28a vector yielded crystals for structure determination. A detergent screen performed using thermal shift assay led to the identification of 3-[(3-cholamidopropyl)dimethylammonio]-1-propanesulfonate (CHAPS) as having the most stabilizing effect. CHAPS detergent was subsequently used for all extraction, purification and crystallization studies of SQLE protein. The plasmid bearing the sequence encoding SQLE was transformed into Rosetta (DE3) E. coli. Cells were grown at 37 °C and induced with 1 mM isopropyl β-D-1-thiogalactopyranoside for about 20 h at 15 °C in Luria Broth media. […] Protein was determined to be > 95% pure by SDS-PAGE and eluted as a monomer as assessed by SEC. […]
# [7] = IC50, time-dependent inhibition, before increasing incubation time, compound incubation time varied from 0 to 6 h, starting value, 15 min reaction
# [8] = baculosome-derived SQLE, 1 h pre-incubation, 100 μM squalene, read-out: IC50
# [9] = compound incubation time varied from 0 to 6 h
# T1 sequence (Q14534 whole entry): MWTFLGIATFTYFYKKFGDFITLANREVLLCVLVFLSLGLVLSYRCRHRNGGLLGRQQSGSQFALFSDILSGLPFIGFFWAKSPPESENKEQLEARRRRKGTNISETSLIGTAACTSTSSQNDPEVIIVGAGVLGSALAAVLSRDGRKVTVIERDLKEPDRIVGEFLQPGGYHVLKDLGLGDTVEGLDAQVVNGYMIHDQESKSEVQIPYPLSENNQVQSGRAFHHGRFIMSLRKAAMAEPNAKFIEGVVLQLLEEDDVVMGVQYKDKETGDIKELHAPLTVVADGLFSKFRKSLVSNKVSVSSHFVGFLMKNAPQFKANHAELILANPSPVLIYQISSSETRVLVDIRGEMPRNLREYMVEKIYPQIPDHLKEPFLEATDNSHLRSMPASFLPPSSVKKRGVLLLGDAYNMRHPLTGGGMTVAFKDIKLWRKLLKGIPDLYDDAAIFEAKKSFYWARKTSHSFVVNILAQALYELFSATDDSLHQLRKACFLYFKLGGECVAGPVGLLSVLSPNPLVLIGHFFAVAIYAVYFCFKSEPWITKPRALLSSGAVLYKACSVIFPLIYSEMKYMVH
# T4 sequence (Q14534 118-488): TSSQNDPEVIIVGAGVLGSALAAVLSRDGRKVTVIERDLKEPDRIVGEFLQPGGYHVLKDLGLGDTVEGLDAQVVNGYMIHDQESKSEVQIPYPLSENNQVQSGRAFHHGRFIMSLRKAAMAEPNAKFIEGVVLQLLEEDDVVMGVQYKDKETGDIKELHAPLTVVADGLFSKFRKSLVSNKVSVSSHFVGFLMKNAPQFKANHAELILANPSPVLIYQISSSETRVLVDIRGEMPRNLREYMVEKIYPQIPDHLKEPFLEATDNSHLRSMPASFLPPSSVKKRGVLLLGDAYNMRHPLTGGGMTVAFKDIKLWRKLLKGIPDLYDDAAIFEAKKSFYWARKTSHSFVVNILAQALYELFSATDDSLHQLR
# T2 sequence (Q14534 whole entry): as the sequence (Q14534 whole entry) above
# T3 sequence (Q14534 118-574): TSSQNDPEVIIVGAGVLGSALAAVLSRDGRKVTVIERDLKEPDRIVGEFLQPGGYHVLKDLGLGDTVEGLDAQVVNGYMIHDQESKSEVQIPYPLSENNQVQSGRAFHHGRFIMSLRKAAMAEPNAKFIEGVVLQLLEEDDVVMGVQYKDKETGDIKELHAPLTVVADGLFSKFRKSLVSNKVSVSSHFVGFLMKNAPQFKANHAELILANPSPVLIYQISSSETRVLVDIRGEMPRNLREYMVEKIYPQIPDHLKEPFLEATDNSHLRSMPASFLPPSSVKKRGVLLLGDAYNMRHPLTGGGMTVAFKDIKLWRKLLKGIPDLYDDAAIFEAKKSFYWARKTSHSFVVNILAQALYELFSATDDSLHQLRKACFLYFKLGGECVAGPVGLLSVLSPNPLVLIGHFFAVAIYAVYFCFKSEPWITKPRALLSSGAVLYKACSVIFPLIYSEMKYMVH
# T5 sequence (Q14534 118-574): as above
SMILES,"IC50 [1, 8] [nM]","IC50 [1, 7] [nM]","time dependence of inhibition [1, 9]",mechanism of inhibition with respect to squalene substrate [1],IC50 [2] [nM],further results
CCN(CC#CC#CC(C)(C)OC)Cc1cccc(OC[Si](C)(C)c2ccccc2C)c1 [Cmpd-4′′],69,800,time-dependent inhibition,non-competitive inhibition,10 to 60,
CCN(C/C=C/C#CC(C)(C)C)Cc1cccc(OCc2cc(-c3ccccc3)cs2)c1 [NB-598.ia],> 100000,,,,,
"Cc1cc2nc3c(=O)[nH]c(=O)nc-3n(C[C@H](O)[C@H](O)[C@H](O)COP(=O)(O)OP(=O)(O)OC[C@H]3O[C@@H](n4cnc5c(N)ncnc54)[C@H](O)[C@@H]3O)c2cc1C [FAD, flavin adenosine dinucleotide]",,,,,,"Km ([3]; HLMs, saturating squalene, varied FAD): 9.6 ± 0.5 µM; ΔTm ([4]; Supplementary Figure 1c): 2.1 °C; mean Tm ([4]; control Tm 48.0): 50.1 °C; Km ([1]; SQLE baculosome, saturating squalene, varied FAD): 8.1 ± 0.6 µM; ΔTm ([5]; Supplementary Figure 1c): 4.7 °C; mean Tm ([5]; control Tm 44.0): 48.7 °C; Km [6]: 5.2 ± 0.5 µM"
CN(C/C=C/C#CC(C)(C)C)Cc1cccc2ccccc12 [terbinafine],,,,,,"inhibition at 100 µM ([3]; HLM assay, at 100 µM inhibitor concentration, read-out: maximal inhibition): 65%"

# Continued, in another order:
"IC50 [1, 8] [nM]",SMILES,"IC50 [1, 7] [nM]","time dependence of inhibition [1, 9]",mechanism of inhibition with respect to squalene substrate [1],IC50 [2] [nM],further results
> 100000,CCN(CC#CC#CC(C)(C)OC)Cc1cccc(OC[Si](C)(C)c2cccc(C)c2)c1 [Cmpd-4′′.ia],,,,,
63,CCN(C/C=C/C#CC(C)(C)C)Cc1cccc(OCc2cc(-c3ccsc3)cs2)c1 [NB-598],120,time-dependent inhibition,non-competitive inhibition,10 to 60,"IC50 ([1]; IC50, time-dependent inhibition, upon increasing incubation time, compound incubation time varied from 0 to 6 h, final value, 15 min reaction): 30 nM; mechanism of action (previous report) [2]: competitive"

# Source: paper PMC6327030 (Nature Communications, 2019)
